Each structure is given as a SMILES string.

Results on one compound are retold here after patent publication US12084579B2, “Cyclophane-sustained high performance porphyrins” (Northwestern University, priority 2020, dated 2024).

The nature of experiment [1]: Isothermal titration calorimetry, single injection, XCage^8+. It counts as binding. Particulars: toward Porp-2H and Porp-Zn. How it is done:
Since the high binding affinity and aggregation of the two porphyrins prevent the accurate measurement of binding constants by isothermal titration calorimetry (ITC), a single injection experiment was performed in order to determine the binding enthalpy. The Gibbs free energy of the receptor-substrate complexation was estimated directedly from the corresponding fluorescent titrations, providing a value for TAS. Compared with ExBox^4+, the binding enthalpies of XCage^8+ are in the range of 7-8 kcal mol^−1 larger, a major contributing factor to the enhanced affinity.
Isothermal titration calorimetry: Isothermal titration was performed by TA Nano Isothermal Titration Calorimeter at 25° C. A Hastelloy cell was used with an active cell volume 190 μL. The stirring speed was set at 150 rpm. The solutions of receptors and substrates were prepared in Milli-Q water and allowed to equilibrate overnight if necessary. The aggregation of porphyrins and their high affinity binding prevented the accurate determination of binding constants, we thus only evaluated the binding enthalpy by single injection method.^S17
A general note: In ITC the heat of successive injections is recorded.

The nature of experiment [2]: Displacement (competitive) fluorescence titration, XCage^8+ displacing ExBox^4+. The class given is binding. Particulars: toward Porp-2H and Porp-Zn; water. As for the experimental part:
The changes in optical properties upon porphyrin encapsulation enable a facile study of the binding events. Fluorescence titrations of Porp-2H and Porp-Zn with ExBox^4+ yielded directly their binding constants in water. Since the binding affinities for XCage^8+ with Porp-2H and Porp-Zn are too high to be determined directly, competitive titrations were performed by displacing ExBox^4+ with XCage^8+ from the complex Porp-2H(Zn)⊂ExBox^4+. The binding affinities (Table 1) between ExBox^4+ and the two porphyrins are in the order of 10^7 M^−1. […] The samples were equilibrated for 6 h prior to the fluorescence titration studies. […]
Displacement fluorescence titration experiments: The displacement of porphyrins from Porp-2H⊂ExBox^4+ or Porp-Zn⊂ExBox^4+ by XCage^8+ to form Porp-2H⊂XCage^8+ or Porp-Zn⊂XCage^8+ regenerates the fluorescence emission of porphyrin, and the turn-on fluorescence was monitored as the signals to track the formation of the porphyrin inclusion complexes with XCage^8+. […] The samples were equilibrated at room temperature for 6 h, and the fluorescence intensity of each sample was recorded. The average fluorescence intensity of the three sets samples was plotted against the concentration of XCage^8+ to generate the binding isotherm, which was fitted by a displacement binding model^S15 to calculate the binding constant Ka using Origin Lab 8.6 software^S16.

`c1cc2ccc1C[n+]1ccc(cc1)-c1cc3cc(c1)-c1cc4cc(c1)-c1cc[n+](cc1)Cc1ccc(cc1)C[n+]1ccc(cc1)-c1cc(cc(c1)-c1cc(cc(c1)-c1cc[n+](cc1)Cc1ccc(cc1)C[n+]1ccc-3cc1)-c1cc[n+](cc1)C2)-c1cc[n+](cc1)Cc1ccc(cc1)C[n+]1ccc-4cc1` [XCage^8+]: the “binding enthalpies larger compared with ExBox^4+” value in experiment [1] was 7 to 8 kcal/mol. Further, in experiment [2], the “enhancement in the binding affinities compared with ExBox^4+” value is on record as around 1000 fold.
